Converted amounts (≈) assume the structure as drawn.
Columns and labels:
[1] = Binding affinity to gram negative bacterial lipid II assessed as dissociation constant by ITC analysis; design: species or system Bacteria
[2] = Hemolytic activity in human red blood cells at 400 ug/ml incubated for 45 mins by spectrophotometric analysis relative to control; type: toxicity, cell-based, Erythrocyte; conditions: red blood cells (erythrocytes), at 400 µg/mL, read-out: Activity
[3] = test system: Escherichia coli; assay: Antibacterial activity against wild-type Escherichia coli ATCC 25922 assessed as inhibition of bacterial growth incubated for 18 hrs; type: functional; conditions: read-out: MIC100
[4] = Cytotoxicity against human HepG2 cells incubated for 40 hrs by celltiter-glo luminescent cell viability assay; type: toxicity, cell-based
[5] = test system: Klebsiella pneumoniae; assay: Antibacterial activity against wild-type Klebsiella pneumoniae ATCC 13883 assessed as inhibition of bacterial growth incubated for 18 hrs; type: functional; conditions: read-out: MIC100
[6] = test system: Pseudomonas aeruginosa; assay: Antibacterial activity against wild-type Pseudomonas aeruginosa PAO1 assessed as inhibition of bacterial growth incubated for 24 hrs; type: functional; conditions: read-out: MIC100
[7] = test system: Escherichia coli; assay: Antibacterial activity against wild-type Escherichia coli ATCC 25922 assessed as inhibition of bacterial growth incubated for 18 hrs in presence of 50% heat inactivated human serum; type: functional; conditions: read-out: MIC100
[8] = test system: Staphylococcus aureus; assay: Antibacterial activity against […] assessed as inhibition of bacterial growth incubated for 18 hrs; type: functional; conditions: ATCC 29213, read-out: MIC100
[9] = test system: Acinetobacter baumannii; assay: Antibacterial activity against wild-type Acinetobacter baumannii ATCC 19606 assessed as inhibition of bacterial growth incubated for 20 hrs; type: functional; conditions: read-out: MIC100
[10] = test system: Escherichia coli; assay: Antibacterial activity against Escherichia coli ATCC 25922 harboring hldE knock-out assessed as inhibition of bacterial growth incubated for 18 hrs; type: functional; conditions: read-out: MIC100
[11] = Hydrophobicity of compound assessed as %MeCN at peak elution by RP-HPLC analysis; type: physicochemical
[12] = test system: Klebsiella pneumoniae; assay: Antibacterial activity against wild-type Klebsiella pneumoniae ATCC 13883 assessed as inhibition of bacterial growth incubated for 18 hrs in presence of 50% heat inactivated human serum; type: functional; conditions: read-out: MIC100
[13] = test system: Escherichia coli; assay: Antibacterial activity against Escherichia coli ATCC 25922 harboring tolC knock-out assessed as inhibition of bacterial growth incubated for 18 hrs; type: functional; conditions: read-out: MIC100
[14] = test system: Escherichia coli; assay: Antibacterial activity against wild-type Escherichia coli ATCC 25922 assessed as inhibition of bacterial growth by measuring fold increase in MIC incubated for 18 hrs in presence of 50% heat inactivated human serum relative to control; type: functional

Compound	Kd [1]	hemolysis at 0.75 h, 400 ug/ml [2]	MIC [3]	IC50 at 40 h [4]	MIC [5]	MIC [6]	MIC [7]	MIC [8]	MIC [9]	MIC [10]	MeCN percentage at peak elution [11]	MIC [12]	MIC [13]	fold change (FC) [14]
CC[C@H](C)[C@@H](NC(=O)[C@@H](NC(=O)[C@H](CCC(N)=O)NC(=O)[C@H](Cc1ccccc1)NC(=O)[C@@H](CCN)NC(=O)[C@H](CCN)NC(=O)[C@H](CO)NC(=O)[C@@H](Cc1c[nH]c2ccccc12)NC(=O)[C@@H](CO)NC(=O)CNC(=O)[C@@H](CCN)NC(=O)[C@H](N)C(C)C)C(C)C)C(=O)N[C@@H](C)C(=O)O	1400 nM	2.1%	≥ 32 µg/mL	41 µg/mL (≈ 29.4 µM)	> 64 µg/mL	–	–	–	–	–	–	–	–	–
CC(C)[C@H](NC(=O)[C@H](CCC(=O)O)NC(=O)[C@H](Cc1ccccc1)NC(=O)[C@@H](CCN)NC(=O)[C@H](CCN)NC(=O)[C@H](CO)NC(=O)[C@@H](Cc1c[nH]c2ccccc12)NC(=O)[C@@H](CO)NC(=O)CNC(=O)[C@@H](CCN)NC(=O)[C@H](N)C(C)C)C(=O)N[C@@H](C(=O)N[C@@H](C)C(N)=O)C(C)(C)C	330 nM	1.6%	16 µg/mL (≈ 11.5 µM)	127 µg/mL (≈ 91.1 µM)	2 µg/mL (≈ 1.44 µM)	–	–	–	–	–	–	–	–	–
CC[C@H](C)[C@@H](NC(=O)[C@@H](NC(=O)[C@H](CCC(=O)O)NC(=O)[C@H](Cc1ccccc1)NC(=O)[C@@H](CCN)NC(=O)[C@H](C)NC(=O)[C@H](CO)NC(=O)[C@@H](Cc1c[nH]c2ccccc12)NC(=O)[C@@H](CO)NC(=O)CNC(=O)[C@@H](CCN)NC(=O)[C@H](NC(=O)[C@H](C)N)C(C)C)C(C)C)C(=O)N[C@@H](C)C(=O)O	3700 nM	7.9%	8 µg/mL (≈ 5.57 µM)	121 µg/mL (≈ 84.2 µM)	4 µg/mL (≈ 2.78 µM)	> 64 µg/mL	8 µg/mL	> 64 µg/mL	32 µg/mL (≈ 22.3 µM)	4 µg/mL (≈ 2.78 µM)	44.3%	16 µg/mL	8 µg/mL (≈ 5.57 µM)	–
CC[C@H](C)[C@@H](NC(=O)[C@@H](NC(=O)[C@H](CCC(=O)O)NC(=O)[C@H](Cc1ccccc1)NC(=O)[C@@H](CCN)NC(=O)[C@H](CCN)NC(=O)[C@H](CO)NC(=O)[C@@H](Cc1c[nH]c2ccccc12)NC(=O)[C@@H](CO)NC(=O)CNC(=O)[C@@H](CCN)NC(=O)[C@H](NC(=O)[C@@H](N)C(C)C)C(C)C)C(C)C)C(=O)N[C@@H](C)C(=O)O	–	14.6%	2 µg/mL (≈ 1.34 µM)	87 µg/mL (≈ 58.2 µM)	2 µg/mL (≈ 1.34 µM)	64 µg/mL (≈ 42.8 µM)	1 µg/mL	> 64 µg/mL	64 µg/mL (≈ 42.8 µM)	32 µg/mL (≈ 21.4 µM)	41.5%	0.5 µg/mL	1 µg/mL (≈ 0.669 µM)	2
CC[C@H](C)[C@@H](NC(=O)[C@@H](NC(=O)[C@H](CCC(=O)O)NC(=O)[C@H](Cc1ccccc1)NC(=O)[C@@H](CCN)NC(=O)[C@H](CCN)NC(=O)[C@H](CO)NC(=O)[C@@H](Cc1c[nH]c2ccccc12)NC(=O)[C@@H](CO)NC(=O)CNC(=O)[C@@H](CCN)NC(=O)[C@H](N)C(C)C)C(C)C)C(=O)O	230 nM	1%	> 64 µg/mL	> 170 µg/mL	> 64 µg/mL	–	–	–	–	–	–	–	–	–
CC[C@H](C)[C@@H](NC(=O)[C@@H](NC(=O)[C@H](CCC(=O)O)NC(=O)[C@H](Cc1ccccc1)NC(=O)[C@@H](CN)NC(=O)[C@H](CCN)NC(=O)[C@H](CO)NC(=O)[C@@H](Cc1c[nH]c2ccccc12)NC(=O)[C@@H](CO)NC(=O)CNC(=O)[C@@H](CCN)NC(=O)[C@H](N)C(C)C)C(C)C)C(=O)N[C@@H](C)C(=O)O	1170 nM	1.6%	> 64 µg/mL	> 170 µg/mL	> 64 µg/mL	–	–	–	–	–	–	–	–	–
CC[C@H](N)C(=O)N[C@@H](C(=O)N[C@H](CCN)C(=O)NCC(=O)N[C@H](CO)C(=O)N[C@H](Cc1c[nH]c2ccccc12)C(=O)N[C@@H](CO)C(=O)N[C@@H](CCN)C(=O)N[C@H](CCN)C(=O)N[C@@H](Cc1ccccc1)C(=O)N[C@@H](CCC(=O)O)C(=O)N[C@H](C(=O)N[C@@H](C(=O)N[C@@H](C)C(=O)O)[C@@H](C)CC)C(C)C)C(C)C	–	8.8%	2 µg/mL (≈ 1.35 µM)	95 µg/mL (≈ 64.2 µM)	2 µg/mL (≈ 1.35 µM)	64 µg/mL (≈ 43.3 µM)	1 µg/mL	> 64 µg/mL	64 µg/mL (≈ 43.3 µM)	1 µg/mL (≈ 0.676 µM)	40.7%	0.5 µg/mL	1 µg/mL (≈ 0.676 µM)	2
CC[C@H](C)[C@@H](NC(=O)[C@@H](NC(=O)[C@H](CCC(=O)O)NC(=O)[C@H](Cc1ccccc1)NC(=O)[C@@H](CCN)NC(=O)[C@H](CCN)NC(=O)[C@H](CO)NC(=O)[C@@H](Cc1c[nH]c2ccccc12)NC(=O)[C@@H](CO)NC(=O)CNC(=O)[C@@H](CCN)NC(=O)[C@H](NC(=O)[C@H](C)N)C(C)C)C(C)C)C(=O)N[C@@H](C)C(N)=O	770 nM	1.5%	8 µg/mL (≈ 5.46 µM)	> 170 µg/mL	32 µg/mL (≈ 21.8 µM)	–	–	–	–	–	–	–	–	–
CC[C@H](C)[C@@H](NC(=O)[C@@H](NC(=O)[C@H](CCC(=O)O)NC(=O)[C@H](Cc1ccccc1)NC(=O)[C@@H](CCN)NC(=O)[C@H](CCN)NC(=O)[C@H](CO)NC(=O)[C@@H](Cc1c[nH]c2ccccc12)NC(=O)[C@@H](CO)NC(=O)CNC(=O)[C@@H](CCN)NC(=O)[C@H](NC(=O)CCN)C(C)C)C(C)C)C(=O)N[C@@H](C)C(=O)O	390 nM	0%	≥ 2 µg/mL	> 170 µg/mL	2 µg/mL (≈ 1.36 µM)	8 µg/mL (≈ 5.46 µM)	–	64 µg/mL (≈ 43.7 µM)	32 µg/mL (≈ 21.8 µM)	0.5 µg/mL (≈ 0.341 µM)	39.8%	–	0.5 µg/mL (≈ 0.341 µM)	–
CC[C@H](C)[C@@H](NC(=O)[C@@H](NC(=O)[C@H](CCC(=O)O)NC(=O)[C@H](Cc1ccccc1)NC(=O)[C@@H](CCN)NC(=O)[C@H](CCN)NC(=O)[C@H](CCN)NC(=O)[C@@H](Cc1c[nH]c2ccccc12)NC(=O)[C@@H](CO)NC(=O)CNC(=O)[C@@H](CCN)NC(=O)[C@H](N)C(C)C)C(C)C)C(=O)N[C@@H](C)C(=O)O	800 nM	1.1%	> 64 µg/mL	> 170 µg/mL	> 64 µg/mL	–	–	–	–	–	–	–	–	–
CC[C@H](C)[C@@H](NC(=O)[C@@H](NC(=O)[C@H](CCC(=O)O)NC(=O)[C@H](Cc1ccccc1)NC(=O)[C@@H](CCN)NC(=O)[C@H](CCN)NC(=O)[C@H](CO)NC(=O)[C@@H](Cc1c[nH]c2ccccc12)NC(=O)[C@@H](CO)NC(=O)CNC(=O)[C@@H](CCN)NC(=O)[C@H](NC(=O)CCCCCN)C(C)C)C(C)C)C(=O)N[C@@H](C)C(=O)O	–	3.5%	64 µg/mL (≈ 42.4 µM)	> 170 µg/mL	32 µg/mL (≈ 21.2 µM)	> 64 µg/mL	2 µg/mL	> 64 µg/mL	64 µg/mL (≈ 42.4 µM)	8 µg/mL (≈ 5.31 µM)	40.1%	2 µg/mL	32 µg/mL (≈ 21.2 µM)	8
CC[C@H](C)[C@@H](NC(=O)[C@@H](NC(=O)[C@H](C)NC(=O)[C@H](Cc1ccccc1)NC(=O)[C@@H](CCN)NC(=O)[C@H](CCN)NC(=O)[C@H](CO)NC(=O)[C@@H](Cc1c[nH]c2ccccc12)NC(=O)[C@@H](CO)NC(=O)CNC(=O)[C@@H](CCN)NC(=O)[C@H](N)C(C)C)C(C)C)C(=O)N[C@@H](C)C(=O)O	1220 nM	0%	> 64 µg/mL	> 170 µg/mL	> 64 µg/mL	–	–	–	–	–	–	–	–	–
